Data published in patent publication US10301314B2, “Compounds and methods for the prevention and treatment of tumor metastasis and tumorigenesis” (The United States of America, as represented by the …, priority 2011, dated 2019).
pIC50: −log10 of the molar value. Where two headings read alike, the source gives them in different places.

Legend:
[1] = test system: PC3M cell line that stably expresses GFP-PTB to mark PNCs; assay: High content assay for PNC detection (reduction of PNC prevalence); format: cell-based, human; settings: PC3M GFP-PTB cells; for AC50 / pIC50: Homo sapiens, PC-3M; for AC50: Table 3; for pIC50 / PNC IC50(μM): Table 4, 16 hrs incubation
From the text: The quantitative output for this assay is the reduction of PNC prevalence. The PNC can be detected in living cells by the expression of a green fluorescent protein (GFP) tagged to the PNC localized protein, PTB. A PC3M cell line was used that stably expresses GFP-PTB to mark PNCs. This method eliminates the need for immunofluorescent staining.
The IN Cell Analyzer 1000 automated fluorescent imaging system (GE Healthcare, Piscataway, N.J.) was used for automated image acquisition. […] The instrument acquired images of each well in a 1536-well plate with a laser-based autofocus system. To score PNC prevalence in a high-content throughput, the Multi-Target Analysis (MTA) algorithm (GE Healthcare, Investigator v3.5) to identify individual cells and granules (PNCs) within these cells was used. The nucleus was segmented via a region growing method (50 μm^2 minimum area) with light shading and noise removal to allow “touching” nuclei to be separated. Granules in the nucleus (PNCs) were segmented using a multiscale top hat method, which measures granules of 1 to 2 μm in size and used a smart masking method to identify the boundaries of each segmented granule. The algorithm was optimized and validated using positive and negative controls (50 μM camptothecin and DMSO, respectively). In particular, the MTA algorithm allows for the identification of multiple subcellular compartments and organelles (or granules) within those compartments. In this instance, the algorithm's capability to identify objects within the same color channel that only differ in size or fluorescent intensity was utilized. Also, the algorithm allows for building complex hierarchical classification systems, using output measures within the algorithm to filter and define subpopulations. For this particular assay, PNC-positive cells were scored when 1 to 3 PNC granules were detected per nucleus. Cells that contained 0 granules were scored as PNC negative, and cells with >3 granules were assumed to be false positives (very few cells have more than 3 PNCs in one focus plane), and were also scored as PNC negative.

PC3M cells [2] = assay: Tumor cell migration/invasion assay through 3D fibrillar collagen (Iuvo Single Microchannel Plate); format: cell-based; settings: Homo sapiens, PC-3M, 120 h, 5 days
Experimental: High-content tumor cell migration assays in 3-dimensional extracellular matrices are powerful tools for modeling and understanding the biology of this critical step in the process of metastasis. However, most of the available methods are not amenable to the throughput required by studies of comparative pharmacology or small scale screening. For this reason, compounds were tested in BellBrook Labs™ automated high-content tumor cell invasion assays. A standard screening-sized plate with an array of embedded microchannels was designed and constructed from common thermoplastics.
PC3M cells were tested for invasion through 3D fibrillar collagen in the luvo Single Microchannel Plate, in the presence of varying levels of test compounds. Channels were prefilled with 820 nL of 3-dimensional type I collagen at 1 mg/mL, through the input port. Following gelation, 2,000 PC3M cells were seeded into the output port using growth media (RPMI+10% FBS with antibiotics) in a volume of 5 μL. Cells were incubated in a 37° C. incubator inside a humidified container to control evaporation (Bioassay dish, Corning). Media, including test compounds, was changed daily for 5 days. At the end of the assay, cells were fixed and stained with Hoechst 33342, then imaged with 4× objective under epifluorescence. Under these conditions, cells across the 140 μm height range of the microchannel can be reliably identified. Test compounds were serially diluted by a factor of 3 to produce 10 concentrations ranging from 50 or 100 μM to 2.5 nM. All assays were conducted in the presence of 0.1% DMSO. Four replicates were performed for all test concentrations. Each plate had 4 dose response curves, as well as 16 channels with no compound and 16 channels with 50 μM blebbistatin (positive control). Analysis was done by automatically cropping each image at the right edge of the channel and counting cells via the ‘count nuclei’ function on Metamorph (Molecular Devices). Non-linear regression analysis was performed with GraphPad Prism.

[3] = test system: PC3M reporter cell line stably expressing the PTB-GFP; assay: ATP quantitation assay (ATPLite); format: cell-based, human; settings: Table 4, PC3M cells, 24 hrs incubation; for pIC50: Homo sapiens, PC-3M
Experimental: This follow-up assay was conducted to measure the effect of compounds on cell health by measuring ATP levels (ATPLite™). ATPLite™ is an ATP monitoring system based on firefly (Photinus pyralis) luciferase. The level of ATP in a metabolically active cell is a general marker for its viability. ATP levels are often reduced during necrosis or apoptosis. In this assay, the luciferase enzyme catalyzes the conversion of the added substrate D-luciferin to oxyluciferin and light with ATP. Thus, the emitted light is proportional to the ATP concentration. For this assay, the highly metastatic PC3M reporter cell line stably expressing the PTB-GFP was provided by Professor Sui Huang of Northwestern University. The media and cell culture reagents were purchased from Invitrogen (Carlsbad, Calif.), ATPLite™ came from PerkinElmer.

PC3M cells [4] = assay: Soft agar colony formation assay (anchorage independent growth); format: cell-based, human; settings: after 14 days; 3.8, 18.6 nM
Experimental: Compound 2 was tested for its ability to affect anchorage independent growth in a soft agar assay, a stringent method to detect malignant transformation of cells in vitro. […] The left hand side of FIG. 1 illustrates a histogram representing the number and size of PC3M soft agar colonies after 14 days of treatment with compound 2 at two different concentrations. A clear reduction of the number of colonies of PC3M cells was observed, particularly at a compound concentration of 18.6 nM. The right hand side of FIG. 1 illustrates two representative images taken at two different regions of the soft agar medium after treatment with DMSO (vehicle) (top row), compound 2 at 3.8 nM (middle row), and compound 2 at 18.6 nM (bottom row).

[5] = PC3M cells in output port, read-out: Proliferation output port IC50
[6] = PC3M cells, 3D type I collagen, read-out: Invasion cell # IC50

Row | pIC50 [3] | PNC IC50(μM) [1] | ATP IC50(μM) [3] | Structure (SMILES) | other results
1 | 3.82 | – | – | N=c1c2c(-c3ccccc3)c(-c3ccccc3)n(Cc3ccccc3)c2ncn1C1CCOCC1 [Compound 1] | AC50 [1]: 90 nM; pIC50 [1]: 7.52; pIC50 (PC3M cells [2]; [5]): 5.30; pIC50 (PC3M cells [2]; [6]): 5.50
2 | 4.72 | – | – | N=c1c2c(-c3ccccc3)c(-c3ccccc3)n(Cc3ccccc3)c2ncn1[C@H]1CC[C@H](O)CC1 [Compound 2, trans-4-(7-Benzyl-4-imino-5,6-diphenyl-4,7-dihydro-3H-pyrrolo[2,3-d]pyrimidin-3-yl)cyclohexanol] | AC50 [1]: 400 nM; pIC50 [1]: 7.62; pIC50 (PC3M cells [2]; [5]): 5.40; pIC50 (PC3M cells [2]; [6]): 5.50; cell viability in soft agar assay (PC3M cells [4]): no impact on cell viability; number of PC3M soft agar colonies (PC3M cells [4]): dose dependent reduction in the number of colonies
3 | 4.02 | inactive | – | N=c1c2c(-c3ccccc3)cn(Cc3ccccc3)c2ncn1[C@@H]1CCCC[C@H]1N [Compound 117] | –
4 | 3.92 | inactive | – | N=c1c2c(-c3ccccc3)cn(Cc3ccccc3)c2ncn1CCCO [Compound 118] | –
5 | 3.92 | inactive | – | C[C@H]([C@@H](O)c1ccccc1)n1cnc2c(c(-c3ccccc3)cn2Cc2ccccc2)c1=N [Compound 119] | –
6 | 3.62 | inactive | – | N=c1c2c(-c3ccccc3)cn(Cc3ccccc3)c2ncn1CCCCO [Compound 120] | –
7 | 3.92 | inactive | – | COC(=O)c1ccc(Cn2cnc3c(c(-c4ccccc4)cn3Cc3ccccc3)c2=N)cc1 [Compound 121] | –
8 | – | inactive | inactive | N=c1c2c(-c3ccccc3)cn(Cc3ccccc3)c2ncn1C1CCOCC1 [Compound 122] | –
9 | 4.62 | inactive | – | COc1ccc(-c2c(-c3ccc(OC)cc3)n(Cc3ccccc3)c3ncn(CC4CCOCC4)c(=N)c23)cc1 [Compound 123] | –
10 | – | inactive | inactive | C#CCn1cnc2c(c(-c3ccccc3)cn2Cc2ccccc2)c1=N [Compound 124] | –
11 | 4.52 | inactive | – | N=c1c2c(-c3ccccc3)cn(Cc3ccccc3)c2ncn1CCCN1CCN(c2ccccc2)CC1 [Compound 125] | –
12 | 4.02 | inactive | – | N=c1c2c(-c3ccccc3)c(-c3ccccc3)n(Cc3ccccc3)c2ncn1CC1COC1 [Compound 126] | –
13 | 4.02 | inactive | – | N=c1c2c(-c3ccccc3)cn(Cc3ccccc3)c2ncn1CC1CCCO1 (stereo not drawn) [Compound 127] | –
14 | – | inactive | inactive | COC(=O)C[C@@H](C(=O)OC)n1cnc2c(c(-c3ccccc3)cn2Cc2ccccc2)c1=N [Compound 128] | –
15 | – | inactive | inactive | COc1ccc(-c2c(-c3ccc(OC)cc3)n(Cc3ccccc3)c3ncn(CC4COC4)c(=N)c23)cc1 [Compound 129] | –
16 | 4.62 | inactive | – | COc1ccc(CCn2cnc3c(c(-c4ccccc4)cn3Cc3ccccc3)c2=N)cc1OC [Compound 130] | –
17 | 3.92 | inactive | – | N=c1c2c(-c3ccccc3)cn(Cc3ccccc3)c2ncn1CCNCCO [Compound 131] | –
18 | – | inactive | inactive | COc1ccc(-c2c(-c3ccc(OC)cc3)n(Cc3ccccc3)c3ncn([C@H]4CC[C@@H](O)CC4)c(=N)c23)cc1 [Compound 132] | –
19 | 4.22 | inactive | – | N=c1c2c(-c3ccccc3)c(-c3ccccc3)n(CC3CC3)c2ncn1CC1CCOCC1 [Compound 134] | –
20 | 4.52 | inactive | – | COc1ccc(-c2c(-c3ccc(OC)cc3)n(Cc3ccccc3)c3ncn(CCCO)c(=N)c23)cc1 [Compound 135] | –
21 | – | inactive | inactive | N=c1c2c(-c3ccccc3)cn(Cc3ccccc3)c2ncn1CCN [Compound 136] | –
22 | – | inactive | inactive | OCCNc1ncnc2c1c(-c1ccccc1)c(-c1ccccc1)n2Cc1ccco1 [Compound 137] | –
23 | 4.22 | inactive | – | N=c1c2c(-c3ccccc3)cn(Cc3ccccc3)c2ncn1Cc1ccco1 [Compound 138] | –
24 | – | inactive | inactive | N=c1c2c(-c3ccccc3)cn(Cc3ccccc3)c2ncn1[C@H]1CC[C@H](O)CC1 [Compound 139] | –
25 | – | inactive | inactive | N=c1c2c(-c3ccccc3)cn(Cc3ccccc3)c2ncn1CCO [Compound 140] | –
26 | 4.69 | – | – | CC(C)Cn1cnc2c(c(-c3ccccc3)c(-c3ccccc3)n2Cc2ccco2)c1=N [Compound 141] | pIC50 [1]: 4.80
